According to patent publication US6787327B2, “Methods for determining tyrosine-DNA phosphodiesterase activity” (Kelk Graduate of Applied Life Sciences, priority 2001, dated 2004):

Target: HTDPNΔ1-39 (recombinant human TDP) (Homo sapiens, UniProt Q9NUW8)
Settings: manganese chloride 5 mM or 10 mM; 5 mM substrate, 5 μg protein; absorbance at 415 nm; FIG. 7
Text: In these assays, a chromogenic enzymatic assay system is used. In these systems, a substrate of smaller molecular weight (i.e., as compared with other substrates) containing one single base of thymidine, with chromogenic para-nitrophenyl group attached to the 3′-hydroxy group of deoxyribose was chosen. This compound mimics the aromatic groups of tyrosine in topo I-DNA complexes.
Upon the cleavage of the phosphodiester bond by TDP, the p-nitrophenol group mimicking the tyrosine residue in topo I-DNA complexes is released. The concentration of this group (i.e., a chromogen) is determined using spectroscopy. Thus, in this Example, enzymatic reactions contained 100 mM Tris HCl, pH 8.5, 100 mM NaCl, 1 mM DTT, 5 mM para-nitrophenyl thymidine-3′-phosphate and 5 μg of purified protein in a volume of 200 μl. For these reactions, 96-well plates were used. The amount of cleaved product (p-nitrophenol) was assessed by determining its absorbance at 415 nm (Ultramark Microplate Imaging System, BioRad).
During the development of this assay system, it was determined that the system may be optimized by the inclusion of manganese cation in the assay. […] Upon incubation of various TDP mutants and the substrate (para-nitrophenyl-thymidine-3′-phosphate) in the presence of manganese cations, the concentrations of the resulting para-nitrophenynol were calculated based on the optical density measured at 415 nm. […]

Sequence of HTDPNΔ1-39 (recombinant human TDP) (Q9NUW8 40-608, stated change not applied): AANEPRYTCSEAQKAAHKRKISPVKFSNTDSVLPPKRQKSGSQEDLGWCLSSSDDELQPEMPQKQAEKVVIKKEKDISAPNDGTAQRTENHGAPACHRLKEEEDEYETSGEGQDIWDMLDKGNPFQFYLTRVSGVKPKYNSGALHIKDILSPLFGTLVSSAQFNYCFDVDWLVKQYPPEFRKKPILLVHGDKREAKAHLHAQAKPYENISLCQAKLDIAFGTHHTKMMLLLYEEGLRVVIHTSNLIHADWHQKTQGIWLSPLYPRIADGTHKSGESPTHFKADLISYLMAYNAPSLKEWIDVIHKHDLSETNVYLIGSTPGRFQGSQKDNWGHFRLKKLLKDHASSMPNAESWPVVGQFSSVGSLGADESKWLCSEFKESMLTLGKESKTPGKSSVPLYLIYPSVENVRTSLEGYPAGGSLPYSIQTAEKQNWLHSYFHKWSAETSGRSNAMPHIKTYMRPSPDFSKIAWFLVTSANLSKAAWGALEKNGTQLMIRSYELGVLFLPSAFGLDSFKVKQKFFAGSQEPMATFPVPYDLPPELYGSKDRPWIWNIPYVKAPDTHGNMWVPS

What does the source list for manganese chloride?
increase of enzymatic activity on para-nitrophenyl thymidine-3′-phosphate, as compared to the activity in the presence of magnesium: 7 fold; increase of enzymatic activity on para-nitrophenyl thymidine-3′-phosphate, as compared with the activity in the absence of cations: 17 fold
